ChEMBL document CHEMBL1126063, “A novel probe for the cannabinoid receptor” (J Med Chem, 1992)

Legend:
[1] = target: Cannabinoid receptor (Rattus norvegicus, UniProt Q9QZN9+P20272); assay: Compound was evaluated for the competitive inhibition of [3H]3-(1,1-Dimethyl-heptyl)-9-hydroxymethyl-6,6-dimethyl-6a,7,8,9,10,10a-hexahydro-6H-benzo[c]chromen-1-ol to cannabinoid receptor from synaptosomal membranes of rat whole brain
[2] = system: Columba livia; assay: Effective dose injected to pigeons in drug discrimination test at a given period of 1.5 hours; type: functional; settings: in Columbidae
[3] = system: Columba livia; assay: Effective dose injected to pigeons in drug discrimination test at a given period of 4.5 hours; type: functional; settings: in Columbidae
[4] = system: Columba livia; assay: Effective dose injected to pigeons in drug discrimination test at a given period of 9.0 hours; type: functional; settings: in Columbidae

CCCCCCC(C)(C)c1cc(O)c2c(c1)OC(C)(C)C1CC=C(CO)CC21 (configuration not stated)
Ki [1]: 466 nM

CCCCCc1cc(O)c2c(c1)OC(C)(C)[C@@H]1CCC(C)=C[C@@H]21 [DRONABINOL]
ED50 [2]: 160 µg/kg
ED50 [3]: 250 µg/kg
ED50 [4]: 1210 µg/kg

CCCCCCC(C)(C)c1cc(O)c2c(c1)OC(C)(C)[C@@H]1CC[C@@H](CO)CC21 (some centres not stated)
Ki [1]: 0.045 nM
ED50 [2]: 5 µg/kg
ED50 [3]: 2 µg/kg
ED50 [4]: 3 µg/kg

CCCCCCC(C)(C)c1cc(O)c2c(c1)OC(C)(C)[C@@H]1CC=C(CO)CC21 (some centres not stated)
Ki [1]: 0.181 nM
ED50 [2]: 4 µg/kg
ED50 [3]: 2 µg/kg
ED50 [4]: 2 µg/kg
